Data on six compounds can be found in patent US10280209B2 (YISSUM RESEARCH DEVELOPMENT COMPANY OF THE HEBREW …, priority 2013, dated 2019).

Assay [1] has as its system experimental autoimmune encephalitis. Put plainly: Experimental autoimmune encephalitis (EAE) model. It is filed as in vivo, mouse.
In assay [2] the target is T1, staphylococcal enterotoxin B (SEB) (Staphylococcus aureus, UniProt P01552). The following applies: previously shown (3); cited from earlier work.
Assay [3] deals with T1, staphylococcal enterotoxin B (SEB). The following applies: previously shown (3); cited from earlier work. The source holds these as a separate data set.
The next assay has as its system human IgG. Put plainly: Surface plasmon resonance, human IgG control on immobilized peptide. The following applies: SPR, studied in parallel. The format is binding. The method, then:
Peptides were diluted to 10-200 μg/ml in 10 mM Sodium (Na) acetate pH 4.0 and immobilized on a CM5 sensor chip (BIAcore) using an amine-thiol coupling kit (BIAcore), respectively; the immobilized amounts were 500-1,000 resonance units. Analytes were injected at 20 μl/min in 25 mM HEPES pH 7.4, 150 mM NaCl, 3.4 mM EDTA, and 0.005% surfactant P20 under conditions showing no mass transport limitation. Regeneration was with 50 mM phosphoric acid. Kinetic analyses were performed at 25° C. in a BIAcore 3000 instrument, deducting the signal from the control flow cell from the binding signal. Analyte curves were run in duplicate; representative results are shown. Human IgG (Jackson Laboratories) served as control. Fusion of the IgG1-Fc domain to the 152-amino-acid extracellular domain of CD28 was performed as described below.
A general note: SPR reads the build-up and loss of mass on a sensor chip optically.

For a further assay, the system named is human PBMC. The assay can be described thus: Cytokine induction by peptides alone in human PBMC (ELISA). It is filed as cell-based. Conditions: 10 μg/ml peptide, no inducer. The method, then: (§1) Peripheral blood mononuclear cells (PBMC) from healthy human donors were separated on Ficoll Paque (Amersham), washed twice with 50 ml of RPMI 1640 medium, re-suspended at a density of 4×10^6 cells/ml and cultured in this medium supplemented with 2% fetal calf serum, 2 mM glutamine, 10 mM Minimum Essential Medium (MEM) nonspecific amino acids, […], 10 mM Hepes pH 7.2, 5×10^−5 M 2-mercaptoethanol, 100 u/ml penicillin, 100 μg/ml streptomycin and 5 μg/ml nystatin. Mouse anti-human monoclonal antibodies αCD3 (clone UCHT1; 100 ng/ml) and αCD28 (clone 37407; 2.5 μg/ml) (both from R&D Systems) were used as inducers. Cytokines in culture medium were determined with Quantikine ELISA kits (R&D Systems) according to the manufacturer's instructions.
Background: ELISA stands for enzyme-linked immunosorbent assay.

The test system of the next assay is signaling through CD3. The assay can be described thus: αCD3-induced cytokine expression in human PBMC (ELISA). The format is cell-based. Conditions: αCD3 alone, 10 μg/ml peptide. As for the experimental part:
as §1

The next assay concerns the target T2, CD28 (Homo sapiens, UniProt P10747).
T2 construct: endogenous in cells; host or cells: human PBMC
The assay can be described thus: αCD3/αCD28-induced cytokine expression in human PBMC (ELISA). The format is cell-based. The following applies: αCD3/αCD28, 10 μg/ml peptide. As for the experimental part:
as §1

For the next assay, the system named is adjuvant arthritis. Put plainly: Adjuvant arthritis model. Conditions: rat, in vivo.
The test system of assay [4] is collagen-induced arthritis. Put plainly: Collagen-induced arthritis model. It is filed as in vivo, mouse. Conditions: mice.
The mark [5] stands for this setting: FIG. 11A, daily from day 1, solumedrol 20 mg/kg, p2TB 50 μg, pe12-pal 100 μg.
Where [6] appears, read: independent experiment FIG. 11B-D, daily, solumedrol 20 mg/kg, p2TB 50 μg, p2TB-pal 50 μg, pe12-pal 100 μg.

Several values for one entry are separate records, joined by “and”; a condition that tells them apart may be missing. Equal values may be shown once. Square brackets hold non-standard residues; d marks the D form. Ends that are not written are not given here.

Take `C[C@H]1C[C@@H]2[C@H]([C@@H](O)C[C@@]3(C)[C@H]2CC[C@]3(O)C(=O)COC(=O)CCC(=O)O)[C@@]2(C)C=CC(=O)C=C12` [solumedrol, reference compound]: the “reduction of cumulative clinical score” value in assay [1] (setting [5]) and in assay [1] (setting [6]) was 50% throughout.
As for (D-A)ASMDYPVL(D-A) ([dA]ASMDYPVL[dA]), in [2], the “ability to bind directly to SEB after scrambling of p2TA sequence” value was “strongly impair”. Besides, in assay [3], the “ability to protect mice from lethal SEB challenge after scrambling of p2TA sequence” value was “strongly impair”.
As for “(D-A)PAVVLASS(D-A) ([dA]PAVVLASS[dA]) [p2TB, CTLA-4 homodimer interface peptide abutted by D-Ala at both termini]”, the “affinity for IgG” value in the assay with human IgG is on record as “none of the peptides showed affinity for IgG”. Besides, in the assay with human PBMC, the “Th1 cytokine response induced by peptide alone” value is on record as “do not induce a significant Th1 cytokine response”. Also, in the assay with signaling through CD3, the “αCD3-mediated induction of IFN-γ” value was “did not inhibit”, the “αCD3-mediated induction of IL2” value is recorded as “did not inhibit” and the “αCD3-mediated induction of TNF-α” value is reported as “did not inhibit”. For the same compound, the “signaling through CD28 (IFN-γ, IL2, TNF-α secretion)” value with CD28 is “inhibit signaling through CD28”.
As to “(D-A)SHFTHNRHGHST(D-A) ([dA]SHFTHNRHGHST[dA]) [pe12]”, in the assay with human IgG, the “affinity for IgG” value is “none of the peptides showed affinity for IgG”. Moreover, in the assay on human PBMC, the “Th1 cytokine response induced by peptide alone” value is recorded as “do not induce a significant Th1 cytokine response”. Moreover, the “disease symptoms after termination of therapy on day 15” value in the assay on adjuvant arthritis was “leveled off and even showed a progressive further decline”. For the same compound, in the assay with adjuvant arthritis (iv), the “cumulative reduction of disease symptoms” value is reported as 41% and the “disease symptoms during treatment, up to day 15” value is given as “did not exhibit inhibition of symptoms”. Moreover, in the assay on signaling through CD3, the “αCD3-mediated induction of IFN-γ” value is on record as “did not inhibit”, the “αCD3-mediated induction of IL2” value is “did not inhibit” and the “αCD3-mediated induction of TNF-α” value is “did not inhibit”. The “signaling through CD28 (IFN-γ, IL2, TNF-α secretion)” value with CD28 is “inhibit signaling through CD28”.
In the case of “(palmitoyl-lysine)PAVVLASS(D-A) (PAVVLASS[dA]; not fully specified (N-terminus)) [p2TB-pal]”, in assay [1] (mouse, in vivo), the “reduction of cumulative clinical score” value is 41% and 31% and 38%. Also, in [4] (100 μg once every 3 days starting on day 25), the “reduction of cumulative disease symptoms” value is 34%.
As to “(palmitoyl-lysine)SHFTHNRHGHST(D-A) (SHFTHNRHGHST[dA]; not fully specified (N-terminus)) [pe12-pal]”, the “reduction of cumulative clinical score” value in [1] (setting [5]) turned out to be 63%; in assay [1] (setting [6]), 42%; in [1] (independent experiment FIG. 11B-D, once every 3 days, p2TB 100 μg, p2TB-pal 100 μg, pe12-pal 150 μg) it was 48%. In addition, the “amelioration of disease symptoms” value in [4] (150 μg once every 3 days from disease onset) is on record as 31%; in assay [4] (200 μg once every 5 days from disease onset), 27%.
